Laboratory results reported in ChEMBL document CHEMBL1201862, “PubChem BioAssay data set” (2004).
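Following 48 hours of exposure in 96-well plates, responses at five concentrations were used to interpolate endpoints linearly. GI50 marks 50% less growth.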 Activity calls are given as the source filed them. Rule as the data show it: active = GI50 up to about 1.1 µM and inactive = higher.

Key:
Assay in all cases: NCI tumour cell line growth inhibition, 48 h
UACC-257 = tested on: UACC-257
HCC 2998 = tested on: HCC 2998
RPMI-8226 = tested on: RPMI-8226
SK-MEL-5 = tested on: SK-MEL-5
Malme-3M = tested on: Malme-3M
HOP-62 = tested on: HOP-62
IGROV-1 = tested on: IGROV-1
OVCAR-4 = tested on: OVCAR-4
UO-31 = tested on: UO-31
MCF7 = tested on: MCF7
ACHN = tested on: ACHN
NCI-H23 = tested on: NCI-H23
NCI-H522 = tested on: NCI-H522
HOP-92 = tested on: HOP-92
M14 = tested on: M14
CAKI-1 = tested on: CAKI-1
OVCAR-5 = tested on: OVCAR-5
OVCAR-8 = tested on: OVCAR-8
EKVX = tested on: EKVX
K562 = tested on: K562

| SMILES | GI50 (UACC-257) | GI50 (HCC 2998) | GI50 (RPMI-8226) | GI50 (SK-MEL-5) | GI50 (Malme-3M) | GI50 (HOP-62) | GI50 (IGROV-1) | GI50 (OVCAR-4) | GI50 (UO-31) | GI50 (MCF7) | GI50 (ACHN) | GI50 (NCI-H23) | GI50 (NCI-H522) | GI50 (HOP-92) | GI50 (M14) | GI50 (CAKI-1) | GI50 (OVCAR-5) | GI50 (OVCAR-8) | GI50 (EKVX) | GI50 (K562) |
| --- | --- | --- | --- | --- | --- | --- | --- | --- | --- | --- | --- | --- | --- | --- | --- | --- | --- | --- | --- | --- |
| O=C1N=C(c2ccccc2)O/C1=C\c1ccccc1 | > 100 µM (inactive) | > 100 µM (inactive) | > 100 µM (inactive) | > 100 µM (inactive) | > 100 µM (inactive) | > 100 µM (inactive) | > 100 µM (inactive) | > 100 µM (inactive) | > 100 µM (inactive) | > 100 µM (inactive) | > 100 µM (inactive) | > 100 µM (inactive) | > 100 µM (inactive) | > 100 µM (inactive) | > 100 µM (inactive) | > 100 µM (inactive) | > 100 µM (inactive) | > 100 µM (inactive) |  |  |
| Cc1ccc(-n2nnc3c(NNc4ccccc4)n[nH]c(=O)c32)cc1 | > 100 µM (inactive) | > 100 µM (inactive) | > 100 µM (inactive) | 43.1 µM (inactive) | > 100 µM (inactive) | 66.2 µM (inactive) |  | 36.9 µM (inactive) |  | 35.3 µM (inactive) | > 100 µM (inactive) | 72.1 µM (inactive) | 30.2 µM (inactive) | 23.1 µM (inactive) | > 100 µM (inactive) | > 100 µM (inactive) | > 100 µM (inactive) | 49.8 µM (inactive) | 80.7 µM (inactive) | 48.3 µM (inactive) |
| C[C@@H]1C[C@H](O)[C@]2(O)O[C@@H]3C[C@@]4(C=O)[C@@H](CC=C5[C@@H]4CC[C@]4(C)[C@@H](C6=CC(=O)OC6)CC[C@]54O)C[C@H]3O[C@@H]2O1 | 0.0702 µM (active) | 0.0678 µM (active) | < 0.018 µM (active) | < 0.0169 µM (active) | < 0.01 µM (active) | < 0.0121 µM (active) | < 0.0118 µM (active) | < 0.0106 µM (active) | < 0.0247 µM (active) | < 0.0188 µM (active) | < 0.01 µM (active) | 0.0118 µM (active) | < 0.01 µM (active) | 0.0277 µM (active) | 0.0574 µM (active) | < 0.0125 µM (active) | 0.0951 µM (active) | < 0.0205 µM (active) | < 0.01 µM (active) | < 0.0231 µM (active) |
| NC(Cc1n[nH]c2ccccc12)C(=O)O (stereo unspecified) | > 100 µM (inactive) | > 100 µM (inactive) | > 100 µM (inactive) | > 100 µM (inactive) | > 100 µM (inactive) | > 100 µM (inactive) | > 100 µM (inactive) | > 100 µM (inactive) | > 100 µM (inactive) | > 100 µM (inactive) | > 100 µM (inactive) | > 100 µM (inactive) | > 100 µM (inactive) | > 100 µM (inactive) | > 100 µM (inactive) | > 100 µM (inactive) | > 100 µM (inactive) | > 100 µM (inactive) | > 100 µM (inactive) | > 100 µM (inactive) |
